The NIST ThermoML archive (doi:10.1016/j.jct.2014.04.021)
± gives the expanded uncertainty stated by the source.

Settings: for Normal melting temperature: Crystal, DTA; for mass density: 101.33 kPa, Liquid, Vibrating tube method

C[n+]1ccn(CC#N)c1.N#Cc1nc(C(F)(F)F)[n-]c1C#N
Normal melting temperature: 92.7 ± 0.4 °C

OC[C@@H](O)[C@H](O)[C@@H](O)CO [xylitol]
Normal melting temperature: 94.1 ± 0.4 °C

CCCCCC[N+]1(C)CCCCC1.O=S(=O)([N-]S(=O)(=O)C(F)(F)F)C(F)(F)F
mass density (293 K): 1329.5 ± 1.1 kg/m3 | mass density (298.15 K): 1325.4 ± 1.1 kg/m3

OC[C@@H](O)[C@@H](O)[C@H](O)[C@@H](O)CO [D-sorbitol]
Normal melting temperature: 98.6 ± 0.4 °C

CCCCCC[n+]1cccc2ccccc21.O=S(=O)([N-]S(=O)(=O)C(F)(F)F)C(F)(F)F [1-hexylquinolinium bis(trifluoromethylsulfonyl)amide]
Normal melting temperature: 45 ± 0.4 °C

CCCCCC[n+]1ccc2ccccc2c1.O=S(=O)([N-]S(=O)(=O)C(F)(F)F)C(F)(F)F [N-hexylisoquinolinium bis(trifluoromethylsulfonyl)imide]
mass density (333.2 K): 1349.3 ± 1.8 kg/m3

CCCCn1cc[n+](C)c1.N#CC1=NC(C(F)(F)F)=NC1=C=[N-]
mass density (298.15 K): 1199.65 ± 1.5 kg/m3
